# Experimental data reported in patent US20150051192A1, “BLOCKING OF CUE-INDUCED DRUG REINSTATEMENT” (ALBANY MEDICAL COLLEGE, priority 2012, published 2015).
# “Also recorded” adds a separate entry of the source. Like-named read-outs stand apart in the source and are kept apart here.
# What was measured:
# [1] = tested on: female Sprague-Dawley rats; test: Musical cue-induced reinstatement of cocaine seeking (Experiment 3); assay type: in vivo, rat; conditions: 18-MC 40 mg/kg i.p. 20 minutes prior to reinstatement test session, vs saline
# Text: Naïve female Sprague-Dawley rats (Taconic Germantown, N.Y.), weighing approximately 250 g at the start of the experiments, were housed individually in a temperature and humidity controlled colony room under a standard 12:12 light/dark cycle. Food and water were provided ad libitum. Protocols were designed and implemented in accordance with the “Guide for the Care and Use of Laboratory Animals” (1996) and were approved by the Institutional Animal Care and Use Committee of Albany Medical College. Rats were given one week of acclimation prior to experimental procedures.
# Cocaine hydrochloride (˜0.4 mg/kg/infusion, Sigma-Aldrich, St. Louis, Mo.) was dissolved in 0.9% sodium chloride with a 2 mg/ml drug to saline ratio, and then brought to a neutral physiological pH before use in intravenous (i.v.) self-administration sessions. 18-MC (40 mg/kg, Obiter Research LLC. Champaign, Ill.) and saline were both administered intraperitoneally (i.p.). Animals were anesthetized with sodium pentobarbital (50 mg/kg, i.p.) for both intrajugular and microdialysis cannulation surgeries. Sodium methohexital (10 mg/kg) was used to verify catheter patency. All other reagents used in conjunction with microdialysis experiments were obtained from local suppliers and were of analytical grade.
# Miles Davis' “Four” (Prestige Blue Haze, 1954) was the musical track used as a contextual cue in these experiments. The Miles Davis selection was chosen because it had been used successfully in past conditioning paradigms in our laboratory (Polston et al, 2011b). This musical selection was originally chosen because it has a repetitive beat and melody, helping to make it easily recognizable and identifiable. During drug training, self-administration, and applicable test sessions, “Four” was played on a continuous loop, at a volume staying between 65 and 75 decibels. This decibel range was chosen because it had been used successfully in past investigations involving rats and music (Feduccia et al, 2008; Otsuka et al, 2009; Polston et al, 2011b).
# Experiments were conducted in rat operant conditioning chambers (ENV-009, Med Associates, St. Albans, Vt.) located within sound attenuated boxes outfitted with acoustical foam. The operant boxes were continuously ventilated with a house fan, and equipped with two retractable levers spaced approximately 20 cm apart on the front wall, with a house light mounted on the back wall of the test chamber. […] By operationally defining the floor (30.5 cm×31.8 cm) of the test chamber, and dividing it into three spatial zones, the program automatically generated detailed readings of the time spent in each zone in seconds and the distance that the animal traveled in meters. […] Videos were also periodically recorded and analyzed to ensure that Anymaze was functioning correctly. […]
# rats [2] = conditions: cited from earlier work
# [3] = in vivo, cited from earlier work
# study animals [4] = conditions: cited from earlier work
# study animals [5] = conditions: cited from earlier work; remark: listed apart in the source
# rats [6] = conditions: compared to saline treated rats; cited from earlier work
smiles,measurement,setting,value
"COCC[C@H]1CC2CN3CCc4c([nH]c5ccccc45)[C@](C(=O)OC)(C2)[C@H]13 [18-MC, 18-Methoxycoronaridine]","time spent in the inactive or back zones, reinstatement test session","[1]; inactive p=0.488, back p=0.082",no effect of Treatment
same,active lever responses on the reinstatement test day,"[1]; musical cue, p<0.001",significantly fewer active lever responses; also recorded: significantly attenuated responses
same,"time spent in the active zone, reinstatement test session",[1]; p<0.01,significant decrease; also recorded: significantly decreased
same,locomotor activity on the reinstatement test day,[1]; p=0.143,no significant differences between groups; also recorded: produced no changes in locomotor activity
same,"nicotine, cocaine, morphine, methamphetamine, and ethanol self-administration",rats [2],reduce
same,acquisition of a cocaine conditioned place preference,[3],able to block the acquisition
same,acquisition of a cocaine conditioned place preference,[3]; listed as 18MC,block acquisition
same,effect on drug self-administration,study animals [4]; 10 μg administered into the interpeduncular nucleus,effective
same,effect on drug self-administration,study animals [4]; 10 μg administered into the ventral tegmental area,no effect
same,"morphine, methamphetamine, and nicotine self-administration",study animals [4]; locally administered into the medial habenula,decreased
same,sensitized dopamine responses in the nucleus accumbens,study animals [5]; local administration into both the medial habenula and the interpeduncular nucleus,produced similar results
same,sensitized dopamine responses to both morphine and cocaine in the nucleus accumbens,"study animals [5]; systemic 18-MC 40 mg/kg pretreatment 19 hours beforehand, chronic dosing models",abolished
same,locomotor effects alone,rats [6],produces no locomotor effects alone
